Values of other authors in patent US9192588B2, “Method for producing a zeaxanthin-enriched chicken egg” (JX NIPPON OIL & ENERGY CORPORATION, priority 2011, dated 2015).
Where two headings read alike, the source gives them in different places.

Settings: human
[1] = twice the initial dose for further 6 months

## CC1=C(/C=C/C(C)=C/C=C/C(C)=C/C=C/C=C(C)/C=C/C=C(C)/C=C/C2=C(C)C[C@@H](O)CC2(C)C)C(C)(C)C[C@H](O)C1 [chemically synthesized zeaxanthin, zeaxanthin]
12.6 mg every day for 6 months
  blood zeaxanthin concentration after intake: 0.85 µM
  proportion of the increase to the intake: 0.06 μM/(mg/Day)
Before intake
  initial blood zeaxanthin concentration: 0.04 µM
[1]
  blood zeaxanthin concentration after intake: 1.09 µM
  proportion of the increase to the intake: 0.01 μM/(mg/Day)
